Like-named read-outs stand apart in the source and are kept apart here.
Columns and labels:
Format in all cases: cell-based
[1] = test system: Mouse embryonic fibroblast C3H10T1/2; assay: Fibroblast strain C3H10T1/2, 3D culture, ATP assay (Experimental Example 11)
Method: Mouse embryonic fibroblast C3H10T1/2 (manufactured by DS PHARMA BIO MEDICAL) was cultured in a BME medium (manufactured by Thermo Fisher Scientific) containing 10 (v/v) % FBS (manufactured by Corning) and the L-glutamine-penicillin-streptomycin stabilizing solution (manufactured by Sigma-Aldrich). The above-mentioned cells in the logarithmic growth phase were washed with PBS, a 0.25 w/v % trypsin-1 mmol/L EDTA (ethylenediaminetetraacetic acid) solution (manufactured by Wako Pure Chemical Industries, Ltd.) was added, and the cells were detached by incubating at 37° C. for 3 min. Each medium was added, the mixture was centrifuged, and the supernatant was removed.
The aforementioned various cells were suspended in respective deacylated gellan gum-containing or not containing media (deacylated gellan gum concentration was 0.015 w/v %), and seeded in a 96 well low attachment U-bottom plate (manufactured by Corning, #4520, deacylated gellan gum-free medium) at a cell concentration of 700-2000 cells/90 μL/well (3D culture). […] The amount of each compound solution to be added was 10 μL/well. As a control, a DMSO solution dissolved in a medium was added (DMSO final concentration 0.1%). […] When compared with the compound no-addition (control), one showing a value of not more than 119% as -, one showing a value of not less than 120% as ◯, and one showing a value of not less than 150% as ⊚ are shown in the eighteenth table. Unperformed test is left blank.

[2] = test system: hiPS cell line 253G1; assay: Human pluripotent stem cell (hiPS cell), EZSPHERE plate, ATP assay (Experimental Example 13)
Summary of the method: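 hiPS 253G1 cells maintained on vitronectin in mTeSR1, dissociated with TrypLE Select, then seeded at 10000 cells/well in EZSPHERE plates in medium with 10 μM Y-27632. Compound added, with half-medium exchange daily and compound replenished to hold concentration constant; DMSO control at 0.05% final.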

[3] = test system: Human umbilical vein endothelial cells; assay: Vascular endothelial cell, 3D culture, ATP assay (Experimental Example 14); details: human umbilical vein endothelial cells under three-dimensional conditions
Method: Human umbilical vein endothelial cells (manufactured by PromoCell) were precultured in Endothelial Cell proliferation Medium (manufactured by PromoCell) medium (single layer culture). The above-mentioned cells in the logarithmic growth phase were washed with PBS, DetachKit (manufactured by PromoCell) was added, and adherent cells were detached by incubating at 37° C. for 3 min. The medium was added and the mixture was centrifuged and resuspended in the same medium.
The aforementioned cells were suspended in respective deacylated gellan gum-containing or not containing media (deacylated gellan gum concentration was 0.015 w/v %), and seeded in a 96 well low attachment U-bottom plate (manufactured by Corning, #4520, deacylated gellan gum-free medium), or a low attachment flat bottom plate (manufactured by Corning, #3474, deacylated gellan gum-containing medium) at a cell concentration of 700-2000 cells/90 μL/well (all 3D culture). […] The amount of each compound solution to be added was 10 μL/well. As a control, a DMSO solution dissolved in a medium was added (DMSO final concentration 0.1%).

[4] = test system: Cercopithecus aethiops kidney epithelium-derived cell line Vero; assay: Animal cell lines, 3D culture, ATP assay (Experimental Example 15); details: for number of viable cells (RLU), relative value to control (100%): 4 days
Text: (§1) Various animal cell lines were precultured (single layer culture) as follows in respective media. Chinese hamster ovary-derived cell line CHO-K1 (manufactured by DS PHARMA BIO MEDICAL, 10% fetal bovine serum (FBS, manufactured by Corning)-containing Ham's F-12 medium (manufactured by Fujifilm Wako Pure Chemical Corporation)), Cercopithecus aethiops kidney epithelium-derived cell line Vero (purchased from JCRB cell bank, 5% FBS-containing Medium 199 medium (manufactured by Life Technologies)). The above-mentioned cells in the logarithmic growth phase were washed with PBS, a 0.25 w/v % trypsin-1 mmol/L EDTA (ethylenediaminetetraacetic acid) solution (manufactured by Fujifilm Wako Pure Chemical Corporation) was added, and adherent cells were detached by incubating at 37° C. for 3 min. Each medium was added and the mixture was centrifuged and resuspended in the same medium.
(§2) The aforementioned various animal cells were suspended in respective deacylated gellan gum-containing or not containing media (deacylated gellan gum concentration was 0.02 w/v % in Ham's F-12 medium, 0.015 w/v % in Medium 199 medium), and seeded in a 96 well low attachment U-bottom plate (manufactured by Corning, #4520, deacylated gellan gum-free medium), or a low attachment flat bottom plate (manufactured by Corning, #3474, deacylated gellan gum-containing medium) at a cell concentration of 700-2000 cells/90 μL/well (all 3D culture). […] The amount of each compound solution to be added was […]. As a control, a DMSO solution dissolved in a medium was added (DMSO final concentration 0.1%). […] When compared with the compound non-addition (control), one showing a value of not more than 119% as -, one showing a value of not less than 120% as ◯, and one showing a value of not less than 150% as ⊚ are shown in the twenty-third table and the twenty-fourth table.

[5] = test system: Chinese hamster ovary-derived cell line CHO-K1; assay: as above; details: 4 days
Text: as §1, §2

[6] = test system: plural animal cell lines; assay: Animal cell lines, summary over the cell lines (Experimental Example 15); details: animal cell lines under three-dimensional conditions
Text: as §1, §2

Compound: CC/C(=N\NC(=O)NCc1cccc(O)c1)c1ccc(O)c(C)c1O [k-1:J-1]
- number of viable cells (RLU), relative value to control (100%) ([1]; C3H10T1/2, low attachment U-bottom plate, 1 μM, 4 days): ⊙
- proliferation activity (in words) ([1]; fibroblast under three-dimensional conditions): promoted proliferation activity in fibroblast
- relative value (%) ([2]; hiPS 253G1, EZSPHERE plate, 5 μM, 3 days, RLU of DMSO addition = 100%): 227%
- proliferation activity (in words) ([2]; human pluripotent stem cells under three-dimensional conditions): promoted proliferation activity in human pluripotent stem cells
- proliferation activity (in words) [3]: promoted proliferation activity in human umbilical vein endothelial cells
- viability at 5 µM ([4]; Chlorocebus sabaeus, 96 h, read-out: number of viable cells (RLU), relative value to control (100%)): 120 to 150%
- number of viable cells (RLU), relative value to control (100%) ([4]; low attachment U-bottom plate, 5 μM): ⊙
- number of viable cells (RLU), relative value to control (100%) ([4]; low attachment U-bottom plate, 10 μM): ⊙
- number of viable cells (RLU), relative value to control (100%) ([4]; low attachment flat bottom plate (deacylated gellan gum-containing medium), 10 μM): ⊙
- number of viable cells (RLU), relative value to control (100%) ([5]; CHO-K1, low attachment flat bottom plate (deacylated gellan gum-containing medium), 10 μM): ⊙
- viability at 5 µM ([5]; Cricetulus griseus, CHO-K1, 96 h, read-out: number of viable cells (RLU), relative value to control (100%), CHO-K1, low attachment U-bottom plate): < 119%
- viability at 10 µM ([5]; Cricetulus griseus, CHO-K1, 96 h, read-out: number of viable cells (RLU), relative value to control (100%), CHO-K1, low attachment U-bottom plate, 10 μM): < 119%
- viability at 5 µM ([5]; Cricetulus griseus, CHO-K1, 96 h, read-out: number of viable cells (RLU), relative value to control (100%), CHO-K1, low attachment flat bottom plate (deacylated gellan gum-containing medium)): 120 to 150%
- proliferation activity (in words) [6]: promoted proliferation activity in plural animal cell lines
